Measurements reported in paper PMC5720837, “Identification of a 4-fluorobenzyl L-valinate amide benzoxaborole (AN11736) as a potential development candidate for the treatment of Animal African Trypanosomiasis (AAT)” (Bioorganic & Medicinal Chemistry Letters, 2018).

Legend:
[1] = system: Trypanosoma vivax (T. vivax STIB719/ILRAD 560 strain), bloodstream form; assay: Whole cell Alamar Blue assay, T. vivax (48 h ex vivo); format: cell-based; conditions: T. vivax STIB719/ILRAD 560, 48 h ex vivo Alamar Blue assay; for IC50: Trypanosoma vivax
Protocol: (§1) Activity of compounds 1–71 against T. congolense and T. vivax was determined using the whole cell assays as described ^6 and their IC50 values are summarized in Table 1.
(§2) [6] Assay methods for determination of T. c. and T. v. […] Culture media consisted of complete HMI-9 (IMDM) with 20% bovine serum. To ensure log growth phase, trypanosomes were sub-cultured at appropriate dilutions every 2–3 days. Bloodstream form Trypanosoma vivax (T. vivax) cannot be cultured axenically, therefore trypanosomes (T. vivax STIB719/ILRAD 560 strain) were harvested from a highly parasitemia mouse via cardiac puncture and used directly in the ex vivo drug sensitivity assay on the same day. […] Parasite starting concentrations of 2 × 10^5 (T. c.) and 4 × 10^5 (T. v.) were calculated respectively, using a cell analyzer system or haemo-cytometer, followed by quantification at 536 nm excitation and 588 nm emission wavelengths using a […] reader. Test compounds were prepared as 10 mg/mL DMSO stocks for each assay run. Compounds were assayed in at least three separate, independent test runs and an 11-point dilution curve was used to determine the IC50 values. Data points were averaged to generate sigmoidal dose-response curves and IC50 values were determined using Softmax Pro 5.2 software.

[2] = In vitro metabolic stability, mouse S9; format: in vitro ADME; conditions: S9 fraction
Protocol: (§3) Selected compounds were screened in both mouse and bovine in vitro metabolic stability assays (mouse S9 and bovine S9), as summarized in Table 2. These two species were chosen because the primary in vivo assays were conducted in mice, and the target animal of this research program is cattle. […] We evaluated the efficacy of selected compounds in two in vivo mouse models of infection, against T. congolense and T. vivax, respectively. Mice were infected with either 1 × 10^5 T. c. parasites or 1 × 10^4 T. v. parasites, and then treated with a test compound via intraperitoneal administration for 1, 2 or 4 consecutive days. The mice were then monitored for the presence of parasitemia for up to 60 days post treatment.[7] We tested in T. c. model first, then followed up with T. v. for interesting compounds. […] We selected compound 5 (AN11736) to progress to exploratory studies to determine the efficacy and safety in a preliminary formulation against induced infections of T. vivax and T. congolense in cattle.[8]

[3] = system: Trypanosoma congolense (T. congolense IL-3000 strain), bloodstream form; assay: Whole cell Alamar Blue assay, T. congolense (72 h in vitro); format: cell-based; conditions: Trypanosoma congolense, 72 h, T. congolense IL-3000, 72 h in vitro Alamar Blue assay
Protocol: as §1, §2

[4] = In vitro metabolic stability, bovine S9; format: in vitro ADME; conditions: S9 fraction
Protocol: as §3

[5] = system: T. c. parasites (STIB736/IL1180 strain); assay: In vivo mouse model of T. congolense infection; set-up: species or system NMRI female mice; conditions: intraperitoneal, monitored 60 days post treatment
Protocol: as §3
[7] Methods for testing compound efficacy in mouse models: In vivo mouse efficacy studies were performed at the Swiss TPH, using established mouse models of infection for T. c. and T. v. NMRI female mice were independently infected either with 1 × 10^5T. c. parasites/mouse (STIB736/IL1180 strain) or 1 × 10^4T. v. parasites/mouse (STIB719/ILRAD560 strain) using an intraperitoneal route. Parasitemia was allowed to develop over 7 days (T. c.) or 3 days (T. v.), respectively, before treatment was administered. Compounds were administered via intraperitoneal injection in 10% DMSO/water. Four mice were used per treatment group. Mice were monitored for the presence of trypanosomes, via tail blood examination microscopically with twice-per-week parasitemia checks for 60 days post treatment. Parasitemia was graded on a scale of 0–3, with 0 indicating no trypanosomes seen in 20 fields of view, 1 indicating the presence of 1–5 trypanosomes per field, 2 indicating the presence of 6–20 trypanosomes per field and 3 indicating greater than 20 trypanosomes per field. Mice scoring 2 or 3 were immediately euthanized. After 60 days, aparasitemic mice were considered cured. Untreated control mice survive on average for 10 and 6 days post infection for T. c. and T. v., respectively. All in vivo mouse experiments were conducted in accordance with the strict guidelines set out by the Swiss Federal Veterinary Office, under the ethical approval of license number #2813.

Cc1c(C(=O)N[C@H](C(=O)OCc2ccc(F)cn2)C(C)C)ccc2c1B(O)OC2 [Compound 35]
IC50 [1]: 0.09 nM
microsomal CLint [2]: 5.2 µL/min/mg
IC50 [3]: 0.15 nM
microsomal CLint [4]: 7.8 µL/min/mg
Efficacy in mouse model T. c., n/m (mice survived / total mice in group) ([5]; 1 × 10 mg/kg): 0/4 (1 × 10)

Cc1c(C(=O)N[C@H](C(=O)OCc2ccc(F)c(C(F)(F)F)c2)C(C)C)ccc2c1B(O)OC2 [Compound 17]
IC50 [1]: 0.04 nM
microsomal CLint [2]: 14 µL/min/mg
IC50 [3]: 0.21 nM
microsomal CLint [4]: 10 µL/min/mg
Efficacy in mouse model T. c., n/m (mice survived / total mice in group) ([5]; 1 × 10 mg/kg): 0/4 (1 × 10)

Cc1c(C(=O)N[C@H](C(=O)OCc2cnccn2)C(C)C)ccc2c1B(O)OC2 [Compound 39]
IC50 [1]: 0.24 nM
microsomal CLint [2]: 1.6 µL/min/mg
IC50 [3]: 0.57 nM
microsomal CLint [4]: 3.9 µL/min/mg
Efficacy in mouse model T. c., n/m (mice survived / total mice in group) ([5]; 1 × 10 mg/kg): 0/4 (1 × 10)

CC(C)[C@H](NC(=O)c1ccc2c(c1)B(O)OC2)C(=O)OCc1ccc(F)cc1 [Compound 20]
IC50 [1]: 1 nM
microsomal CLint [2]: 1.5 µL/min/mg
IC50 [3]: 3 nM
microsomal CLint [4]: 1.3 µL/min/mg
Efficacy in mouse model T. c., n/m (mice survived / total mice in group) ([5]; 4 × 10 mg/kg): 0/5 (4 × 10)

Cc1c(C(=O)N[C@H](C(=O)OCc2ccc(Cl)cc2)C(C)C)ccc2c1B(O)OC2 [Compound 6]
IC50 [1]: 2.9 nM
microsomal CLint [2]: 17 µL/min/mg
IC50 [3]: 0.47 nM
microsomal CLint [4]: 9.1 µL/min/mg
Efficacy in mouse model T. c., n/m (mice survived / total mice in group) ([5]; 1 × 10 mg/kg): 0/4 (1 × 10)

Cc1c(C(=O)NC2(C(=O)OCc3ccc(F)cc3)CC2)ccc2c1B(O)OC2 [Compound 31]
IC50 (nM) T. v. [1]: decreased activity
IC50 [1]: 18 nM
microsomal CLint [2]: < 1 µL/min/mg
IC50 [3]: 0.13 nM
microsomal CLint [4]: < 1 µL/min/mg
Efficacy in mouse model T. c., n/m (mice survived / total mice in group) ([5]; 1 × 10 mg/kg): 0/4 (1 × 10)

Cc1c(C(=O)N[C@H](C(=O)OCc2cc(F)c(F)c(F)c2)C(C)C)ccc2c1B(O)OC2 [Compound 18]
IC50 [1]: 0.06 nM
microsomal CLint [2]: 9.7 µL/min/mg
IC50 [3]: 0.2 nM
microsomal CLint [4]: 3.1 µL/min/mg
Efficacy in mouse model T. c., n/m (mice survived / total mice in group) ([5]; 1 × 10 mg/kg): 1/4 (1 × 10)

CCc1c(C(=O)N[C@H](C(=O)OCc2ccc(F)cc2)C(C)C)ccc2c1B(O)OC2 [Compound 24]
IC50 [1]: 0.05 nM
microsomal CLint [2]: 21 µL/min/mg
IC50 [3]: 0.11 nM
microsomal CLint [4]: 23 µL/min/mg
Efficacy in mouse model T. c., n/m (mice survived / total mice in group) ([5]; 2 × 10 mg/kg): 1/4 (2 × 10)

Cc1c(C(=O)N[C@H](C(=O)OCc2cccc(C#N)c2)C(C)C)ccc2c1B(O)OC2 [Compound 14]
IC50 [1]: 0.06 nM
microsomal CLint [2]: 9.1 µL/min/mg
IC50 [3]: 0.1 nM
microsomal CLint [4]: 2.7 µL/min/mg
Efficacy in mouse model T. c., n/m (mice survived / total mice in group) ([5]; 1 × 10 mg/kg): 0/4 (1 × 10)

Cc1c(C(=O)N[C@H](C(=O)OCc2cccc(CN3CCN(C)CC3)c2)C(C)C)ccc2c1B(O)OC2 [Compound 52]
IC50 [1]: 0.29 nM
microsomal CLint [2]: 1.8 µL/min/mg
IC50 [3]: 1.3 nM
microsomal CLint [4]: 6 µL/min/mg
Efficacy in mouse model T. c., n/m (mice survived / total mice in group) ([5]; 1 × 10 mg/kg): 0/4 (1 × 10)

COC(=O)[C@@H](NC(=O)c1ccc2c(c1C)B(O)OC2)C(C)C [Compound 55]
IC50 [1]: 3.3 nM
microsomal CLint [2]: < 1 µL/min/mg
IC50 [3]: 4.2 nM
microsomal CLint [4]: 3.1 µL/min/mg
Efficacy in mouse model T. c., n/m (mice survived / total mice in group) ([5]; 1 × 10 mg/kg): 0/4 (1 × 10)

Cc1c(C(=O)NC(C(=O)OCc2ccc(F)cc2)C(C)(C)F)ccc2c1B(O)OC2 (stereo not shown) [Compound 30]
IC50 [1]: 0.25 nM
microsomal CLint [2]: 3.7 µL/min/mg
IC50 [3]: 0.09 nM
microsomal CLint [4]: 3.1 µL/min/mg
Efficacy in mouse model T. c., n/m (mice survived / total mice in group) ([5]; 1 × 10 mg/kg): 0/4 (1 × 10)

CC(C)[C@H](NC(=O)c1ccc2c(c1C(F)F)B(O)OC2)C(=O)OCc1ccc(F)cc1 [Compound 22]
IC50 [1]: 0.92 nM
microsomal CLint [2]: 1.4 µL/min/mg
IC50 [3]: 0.67 nM
microsomal CLint [4]: 0.9 µL/min/mg
Efficacy in mouse model T. c., n/m (mice survived / total mice in group) ([5]; 1 × 10 mg/kg): 0/4 (1 × 10)

Cc1c(C(=O)N[C@H](C(=O)OCc2cccc(CN3CCOCC3)c2)C(C)C)ccc2c1B(O)OC2 [Compound 53]
IC50 [1]: 0.35 nM
microsomal CLint [2]: 5.4 µL/min/mg
IC50 [3]: 0.51 nM
microsomal CLint [4]: 6.8 µL/min/mg
Efficacy in mouse model T. c., n/m (mice survived / total mice in group) ([5]; 1 × 10 mg/kg): 0/4 (1 × 10)

Cc1c(C(=O)N[C@H](C(=O)OCc2cnc3ccccc3n2)C(C)C)ccc2c1B(O)OC2 [Compound 47]
IC50 [1]: 0.081 nM
microsomal CLint [2]: 4.8 µL/min/mg
IC50 [3]: 0.2 nM
microsomal CLint [4]: 10 µL/min/mg
Efficacy in mouse model T. c., n/m (mice survived / total mice in group) ([5]; 1 × 10 mg/kg): 0/4 (1 × 10)

Cc1c(C(=O)N[C@H](C(=O)OCc2ccc(S(=O)(=O)N3CCN(C)CC3)cc2)C(C)C)ccc2c1B(O)OC2 [Compound 54]
IC50 [1]: 0.37 nM
microsomal CLint [2]: 5.5 µL/min/mg
IC50 [3]: 1 nM
microsomal CLint [4]: 3.8 µL/min/mg
Efficacy in mouse model T. c., n/m (mice survived / total mice in group) ([5]; 1 × 10 mg/kg): 0/4 (1 × 10)

Cc1c(C(=O)N[C@H](C(=O)OCc2ccc3ncccc3c2)C(C)C)ccc2c1B(O)OC2 [Compound 46]
IC50 [1]: 0.24 nM
microsomal CLint [2]: 7.4 µL/min/mg
IC50 [3]: 0.42 nM
microsomal CLint [4]: 7 µL/min/mg
Efficacy in mouse model T. c., n/m (mice survived / total mice in group) ([5]; 1 × 10 mg/kg): 1/4 (1 × 10)

Cc1c(C(=O)N[C@H](C(=O)OCc2ncc3ccccc3n2)C(C)C)ccc2c1B(O)OC2 [Compound 48]
IC50 [1]: 0.71 nM
microsomal CLint [2]: 4 µL/min/mg
IC50 [3]: < 0.005 nM
microsomal CLint [4]: 23 µL/min/mg
Efficacy in mouse model T. c., n/m (mice survived / total mice in group) ([5]; 1 × 10 mg/kg): 1/4 (1 × 10)

Cc1c(C(=O)N[C@H](C(=O)OCc2nccc(C(F)(F)F)n2)C(C)C)ccc2c1B(O)OC2 [Compound 41]
IC50 [1]: 0.11 nM
microsomal CLint [2]: 1.3 µL/min/mg
IC50 [3]: 0.78 nM
microsomal CLint [4]: 1.8 µL/min/mg
Efficacy in mouse model T. c., n/m (mice survived / total mice in group) ([5]; 1 × 10 mg/kg): 0/4 (1 × 10)

CC(C)c1c(C(=O)N[C@H](C(=O)OCc2ccc(F)cc2)C(C)C)ccc2c1B(O)OC2 [Compound 26]
IC50 [1]: 0.05 nM
microsomal CLint [2]: 32 µL/min/mg
IC50 [3]: 2.3 nM
microsomal CLint [4]: 32 µL/min/mg
Efficacy in mouse model T. c., n/m (mice survived / total mice in group) ([5]; 1 × 10 mg/kg): 0/4 (1 × 10)

Cc1c(C(=O)N[C@H](C(=O)OCc2ccc(F)cc2)C(C)(C)O)ccc2c1B(O)OC2 [Compound 29]
IC50 [1]: 0.1 nM
microsomal CLint [2]: < 1 µL/min/mg
IC50 [3]: 0.26 nM
microsomal CLint [4]: < 1 µL/min/mg
Efficacy in mouse model T. c., n/m (mice survived / total mice in group) ([5]; 1 × 10 mg/kg): 0/4 (1 × 10)
